Reference: PubChem BioAssay (NCI)
Where “and” joins values, the source holds several entries; their conditions need not be identical. Equal values may be shown once.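 Growth conditions: 96-well plates. Treatment: test compound, 48 hours, 5 concentrations. Analysis: linear interpolation between bracketing concentrations; unreached endpoints set to highest concentration. Here, GI50 denotes the concentration required for 50% inhibition of growth. TGI marks complete inhibition of growth.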

Key:
Assay in all cases: growth of human tumour cells (NCI), 48 h
NCI-H460 lung = system: NCI-H460 lung
HCT-116 colon = system: HCT-116 colon
HT29 colon = system: HT29 colon
SK-MEL-2 melanoma = system: SK-MEL-2 melanoma
OVCAR-3 ovarian = system: OVCAR-3 ovarian
OVCAR-8 ovarian = system: OVCAR-8 ovarian
BT-549 breast = system: BT-549 breast
SNB-19 CNS = system: SNB-19 CNS
MOLT-4 leukemia = system: MOLT-4 leukemia
U251 CNS = system: U251 CNS

Structure (SMILES)	TGI (NCI-H460 lung) [µM]	TGI (HCT-116 colon) [µM]	TGI (HT29 colon) [µM]	TGI (SK-MEL-2 melanoma) [µM]	TGI (OVCAR-3 ovarian)	TGI (OVCAR-8 ovarian)	TGI (BT-549 breast) [µM]	TGI (SNB-19 CNS)	TGI (MOLT-4 leukemia) [µM]	TGI (U251 CNS) [µM]	GI50 (NCI-H460 lung) [µM]	GI50 (HCT-116 colon) [µM]	GI50 (HT29 colon)	GI50 (SK-MEL-2 melanoma)	GI50 (OVCAR-3 ovarian)	GI50 (OVCAR-8 ovarian) [µM]	GI50 (BT-549 breast) [µM]	GI50 (SNB-19 CNS)	GI50 (MOLT-4 leukemia) [µM]	GI50 (U251 CNS) [µM]
Cc1nc(C(N)=S)sc1C(=O)C/C(=N/N)C(=O)Nc1cccc(Cl)c1C	> 100	> 100	> 100	> 100	> 100 µM	> 100 µM	> 100	> 100 µM	> 100	> 100										
COc1ccc(-c2cn[nH]c2-c2cc(OC)c3c(c2)OCCO3)cc1	11.4	13.9	11.2	16.1	0.3 µM	21 µM	22	> 100 µM	34.3	12.2	0.0686	0.0708	0.0421 µM	0.0685 µM	0.0423 µM	0.363	0.494	0.33 µM	0.706	0.159
C[C@]12CC[C@@H]3c4ccc(O)cc4C(O)C[C@H]3[C@@H]1CCC2=O (stereo partly drawn)	> 100	> 100	> 100	> 100	> 100 µM	> 100 µM	> 100	> 100 µM	> 100	> 100	> 100	> 100	46.7 µM	> 100 µM	> 100 µM	> 100	> 100	> 100 µM	> 100	> 100
Oc1ccccc1-c1nc2c3ccccc3c3ccccc3c2[nH]1	12.1	22.3	27	16.7	23.1 µM	24.5 µM	21.7	24.9 µM	10.7	22.2	3.39	10.5	14 µM	5.16 µM	11.1 µM	12.1	9.06	12.4 µM	2.76	10.5
CC[C@@]1(O)C(=O)OCc2c1cc1n(c2=O)Cc2cc3cc(N)ccc3nc2-1	0.212	1.65		1.58	0.608 µM and 0.346 µM	0.412 µM and 0.198 µM	1.11	4.11 µM and > 29.4 µM	0.143	0.134	0.00149		0.0176 µM and 0.0225 µM	0.528 µM and 0.311 µM	0.0847 µM and 0.0653 µM	0.0218	0.158	0.0169 µM and < 0.0119 µM	0.00648	0.0013
Fc1cccc(Cl)c1/C=N\N=C1c2ccccc2-c2ccccc21	> 100	> 100	> 100	> 100	> 100 µM	> 100 µM	> 100	> 100 µM	> 100	> 100										
Cc1ccc(S(=O)(=O)N=Nc2c(O)[nH]c3c(Cl)cc(Cl)cc23)cc1	> 100	> 100	> 100	> 100	> 100 µM	> 100 µM	> 100	> 100 µM	> 100	> 100										
CCN1CSC(=S)N(CC)C1	> 100	> 100	> 100	> 100	> 100 µM	> 100 µM	> 100	> 100 µM	> 100	> 100										
O=C1NC2(CN3CCC2CC3)C(=O)N1CN(Cc1ccccc1)c1ccccc1 (stereo not drawn)	> 100	> 100	> 100	> 100	> 100 µM	> 100 µM	> 100	> 100 µM	> 100	> 100										
